# Source: patent publication US20240116889A1, “ANTIVIRAL COMPOUNDS AND METHODS” (priority 2019, published 2024)
# “Also recorded” adds a separate entry of the source.
# Assays:
# A549 cells = experiment: Cell viability of A549 cells (CellTiter-Glo 2.0); assay type: cell-based, human; conditions: RDV continuous, TG 30 min, overnight
# Protocol: (A) A549 cells were primed with indicated TG, 0.3 μM RDV or DMSO control for 30 min, washed twice with PBS and infected with 0.01 MOI of CoV OC43 for 2 h, after which cells were washed again with PBS and incubated in fresh infection media (OptiMEM supplemented with 0.1 μg/ml TPCK-trypsin for TG primed cells, or fresh media in the continuous presence of RDV. At 24, 48 and 72 hpi, viral RNA extraction was performed on collected supernatants followed by one-step reverse transcription qPCR to detect the relative copy number of hCoV OC43 replicase polyprotein lab RNA, based on relative Ct method. Indicated significance relative to corresponding RDV-treated cells based on 2-way ANOVA Tukey's multiple comparisons test. (B) As in (A), A549 cells were primed continuously with RDV, or for 30 min with indicated TG or DMSO, washed, cultured overnight and subjected to cell viability assay (CellTiter-Glo 2.0 Cell Viability Assay, Promega).
# [1] = tested on: RSV (A2 strain, ATCC VR-1540); experiment: RSV production from infected HEp2 cells (immuno-detection / RT-qPCR); assay type: cell-based, human respiratory syncytial virus
# RSV = conditions: human bronchial epithelial cell line; TG 0.1 uM for 24 h before infection; cited from earlier work
# human coronavirus OC43 = assay type: cell-based; conditions: MRC-5 cells
# USSR H1N1 virus = assay type: cell-based, influenza A virus (A/USSR/77)
smiles,measurement,setting,value
"C/C=C(/C)C(=O)O[C@H]1C(C)=C2[C@H]([C@@H]1OC(=O)CCCCCCC)[C@@](C)(OC(C)=O)C[C@H](OC(=O)CCC)[C@@]1(O)[C@H]2OC(=O)[C@@]1(C)O [TG, thapsigargin]",cell viability,A549 cells,no adverse effect on cell viability
same,"RSV replication, priming 24 h before or 24 h post-infection","[1]; HEp2 cells, 30 min TG priming, 72 h infection",strongly inhibited RSV replication
same,"RSV production, TG priming 48 h post-infection","[1]; HEp2 cells, 30 min priming",rapidly effective in blocking virus production at 48 h post-infection
same,duration of sustained anti-viral effect on RSV,"[1]; HEp2 cells, 30 min priming",over 48 h
same,Selectivity index,"[1]; HEp-2 cells, 3 d infection period",1346.499
same,IC50,"[1]; HEp-2 cells, RSV, 3 d infection period",66.8 nM
same,"RSV progeny virus production, viral M-gene RNA","[1]; HEp-2 cells, TG 30 min priming, Riba continuously present, four days post-infection",superior to the continuous presence of ribavirin; also recorded: significantly inhibited
same,RSV replication by RT-PCR,RSV,did not show reduction in virus replication
same,hCoV OC43 replication / progeny production,"human coronavirus OC43; TG 0.05 or 0.5 μM 30 min pre-infection, HC pre-infection or continuous",dramatic dose-responsive reduction in coronavirus replication
same,cell loss and cytopathic effects of infected cells,human coronavirus OC43; TG-primed,limited cell loss and little morphological change
same,progeny virus output vs DMSO control,USSR H1N1 virus,marked reduction in virus output
same,progeny virus output,"USSR H1N1 virus; NHBE cells, 5 nM TG for 30 min",dramatic reduction in progeny virus output
same,"virus production, TG before vs 6 h after infection","USSR H1N1 virus; NHBE cells, 0.01 μM TG 30 min, […]",comparable reduction in virus production
same,Selectivity index (CC50/IC50),"USSR H1N1 virus; NHBE cells, 30 min priming, […]",8572.89
same,IC50,"USSR H1N1 virus; NHBE cells, 30 min priming, […], read-out: USSR virus inhibitory concentration IC50",3.91 nM
